Our source for the net charge and antimicrobial activity values is patent publication US20240366717A1 (priority 2020, published 2024).

Series [1] is described as follows: Net peptide charge and isoelectric point as a function of pH. Format: physicochemical. The note with it: pH 7. The source says:
The peptide may be purified. For example, the peptide may be lyophilized. […] Other peptides are within the scope of the disclosure.
Exemplary peptides having a charge of +5 to +9 include […](d)[…], […](d)[…], and […](d)[…]. In other embodiments, the purified peptide may be substantially neutral. […] Net charge may be selected by peptide design. Design of electrostatic charge in the peptide hydrogel may allow control of charge interaction with cell membrane and proteins.

Another series concerns E. coli. The series can be described thus: Antibacterial assay of PEPXR hydrogels, E. coli. In kind it is cell-based. The note with it: evaluated against E. coli, S. aureus and P. aeruginosa. The source says:
Thus, the peptide hydrogels described herein may generally comprise a high content of positively charged arginine (R) amino acids.

Square brackets hold non-standard residues; d marks the D form. Ends that are not written are not given here.

Turning to VEVSVSVEV(d)PPTEVSVEVEV, the net charge entry in series [1] is reported as “net negative charge”.
Consider “VKVRVRVRVPPTRVRVRVKV (VKVRVRVRV[dP]PTRVRVRVKV-NH2) [PEP6R]”, for which the antimicrobial activity entry with E. coli was “potent antimicrobial activity”.
